Measured values: PMC9961272, “Ca^2+-Dependent and -Independent Calmodulin Binding to the Cytoplasmic Loop of Gap Junction Connexins” (International Journal of Molecular Sciences, 2023)
Entries after “also recorded” stand apart in the source; their conditions may differ.

Assays:
[1] = test system: HUVEC; test: Cell viability (PI+ cells) in dye transfer assay; format: cell-based; conditions: PMA 100 nM or 18ßGRR 100 µM, 60 min; % of PI+ cells
Experimental: The assay is described in detail in [48]; it is an adaption of the traditional fluorescence microscopy-based scrape loading dye transfer (sl-dt) technique. Briefly, HUVEC in 24 well trays were rinsed into +Ca+Mg-PBS. The solution was then replaced with fresh +Ca+Mg-PBS supplemented with Lucifer Yellow (LY; 1 mg/mL), propidium iodide (PI; 15 μM) and Hoechst 33,342 (90 μM) (dye transfer buffer). Immediately after addition of the dye transfer buffer, 3 parallel cuts in the cell monolayer in the central part of each well in the 24 wells were made using a micro scalpel knife with a flat edge stainless steel blade. […]
Data analysis was carried out in the open-source-based software program Fiji ImageJ. A custom-made macro (Cut_Analyzer.ijm) published in the Supplementary Materials to [48] was used for the automated quantitation of gap junction intercellular communication using images acquired for the LY signal. […]
Analysis of cell number. To determine the number of cells per field of view we counted the number of Hoechst stained nuclei using a simple macro (Nuclei count.ijm) recorded […]
Counting cell nuclei using Fiji ImageJ. […] Images were then converted to a mask, a Watershed applied to identify and separate overlapping nuclei and objects counted using the Analyze particles function. […]
Analysis of cell viability. […] Cell viability was expressed as the fraction of cells negative for PI. […]

[2] = test system: gap junction coupling in HUVEC; test: Multiparametric scrape loading-dye transfer assay (Lucifer Yellow spread); format: cell-based, human; conditions: for LY spread after scratch wounding: 60 min pre-treatment, PMA 100 nM or 18ßGRR 100 µM, 15 min post-scratch; for LY spread in the absence of ionomycin stimulation: peptide 7 µM and 17.9 µM, 8 min pre-treatment + 8 min assay; for LY spread in the absence of ionomycin stimulation / LY spread after ionomycin pre-treatment in the presence of peptide: Ca2+-containing media; for LY spread after ionomycin pre-treatment in the presence of peptide: peptide 7 μM and 17.9 μM, 8 min + 8 min
Experimental: The assay is described in detail in [48]; it is an adaption of the traditional fluorescence microscopy-based scrape loading dye transfer (sl-dt) technique. Briefly, HUVEC in 24 well trays were rinsed into +Ca+Mg-PBS. The solution was then replaced with fresh +Ca+Mg-PBS supplemented with Lucifer Yellow (LY; 1 mg/mL), propidium iodide (PI; 15 μM) and Hoechst 33,342 (90 μM) (dye transfer buffer). Immediately after addition of the dye transfer buffer, 3 parallel cuts in the cell monolayer in the central part of each well in the 24 wells were made using a micro scalpel knife with a flat edge stainless steel blade. The cells were then incubated at 37 °C for 8 or 15 min, as specified, before being washed twice with +Ca+Mg-PBS to remove the dye transfer buffer and then fixed in 3% PFA in PBS. Fresh dye transfer buffer was used for each experiment and the plates were stored in the dark at 4 °C.
For quantitative analysis of dye transfer and cell viability, images were acquired from 2 to 3 regions within each cut (6–9 measurements per well) using an EVOS M5000 microscope (Invitrogen, Waltham, MA, USA) equipped with a 10 × 0.3 NA air objective and EVOS LED light cubes for bright field imaging, FITC, RedX and DAPI. Images were acquired sequentially and exported to ImageJ for processing.
Phorbol 12-myristate 13-acetate (PMA) or 18-β-glycyrrhetinic acid (18BGRR) was made up in dimethysulphoxide (DMSO) to a 10 mM or 50 mM stock, respectively, and diluted into HGM to a final concentration of 100 nM or 100 µM, respectively. Cells were incubated in PMA or 18BGRR acid containing solution for 60 min at 37 °C. The PMA or 18BGRR solution was then carefully removed and the cells were washed once in +Ca+Mg-PBS. The PBS was then replaced with the dye transfer buffer (see above) and immediately 3 parallel cuts were made in the cell monolayer in the central part of each well using a micro scalpel knife with a flat edge stainless steel blade. For each experiment drug treatments were carried out in triplicate wells each with 3 cuts per well. Cells were then processed as described above. For analysis of the Ca^2+ dependency of gap junction coupling, HUVEC were incubated in either +Ca+Mg-PBS (+Ca) or -Ca+Mg +0.2 mM EGTA (-Ca) containing PBS and stimulated with vehicle (0.001% DMSO), or 2 μM ionomycin for 8 min. Cells were then transferred to dye transfer buffer made using +Ca or −Ca PBS, supplemented with vehicle or 2 μM ionomycin, and 3 parallel cuts were made in cell monolayers in each well. Cells were incubated for a further 8 min prior to fixation. […] A stock solution of 3.6 mM was made to generate working concentrations of 6–18 µM.
Data analysis was carried out in the open-source-based software program Fiji ImageJ. A custom-made macro (Cut_Analyzer.ijm) published in the Supplementary Materials to [48] was used for the automated quantitation of gap junction intercellular communication using images acquired for the LY signal. Analysis of total cell number (Hoechst channel) and cell viability (propidium iodide channel) was made using custom made macros ([48] and Supplementary Methods).

[3] = target: apo-DA-CaM (Homo sapiens, UniProt P0DP23, T111C/T35C); test: Stopped-flow association and dissociation kinetics with apo-DA-CaM (with and without 15% TFE); conditions: 500 nM DA-CaM with 10 µM mTrp, 5 mM EGTA, mixed with 300 µM CaM, 20 °C
Experimental: We were interested to see if we can detect apo-CaM binding to Cx CL2 peptides using DA-CaM, the conformation of which is insensitive to [Ca^2+] changes, but which indicates changes in the distance between the N- and C-lobe with high sensitivity.
The kinetics of Ca^2+/DA-CaM and DA-CaM interactions with Cx CL2 peptides was measured using a TgK Scientific KinetAsyst™ double-mixing stopped-flow apparatus (TgK Scientific Ltd., Bradford-on-Avon, UK) in single mixing mode. The fluorescence was excited at 340 nm and the emission was detected by a photomultiplier tube with a long pass filter (>400 nm). […] All concentrations given are those in the mixing chamber. Data shown are averages of 3 to 5 repeats. All experiments were carried out at 20 °C. Data were analysed using Kinetic Studio software (TgK Scientific Ltd., Bradford-on-Avon, UK).

[4] = target: TA-CaM (Homo sapiens, UniProt P0DP23); conditions: Ca2+ titration of TA-CaM alone or with peptide
Experimental: The binding curves were fitted to the Hill equation to obtain Kd and Hill coefficient values (n) (Table 2).
The fluorescence was corrected for dilution and [Ca^2+] concentration was calculated using Maxchelator software. The data were fitted to the Hill equation with specific binding (y = Bmax∗x^n/(Kd^n + x^n)) using GraphPad Prism 9.

[5] = test system: CaM; test: CaM binding signals of Cx32 CT peptide
[6] = test system: HUVEC; test: Fura-2 epifluorescence imaging of [Ca2+]i; format: cell-based, human; conditions: ionomycin 2 µM, fura-2 loaded HUVEC
Experimental: HUVEC were grown on 24 mm square uncoated glass coverslips in growth medium. For Fura-2 loading, the cells were transferred into Hanks solution (140 mM NaCl, 5 mM KCl, 1.8 mM CaCl2, 2 mM MgCl2, 10 mM glucose, 10 mM HEPES-NaOH pH 7.4) supplemented with 2.5 µM Fura-2AM (Molecular Probes, Eugene, Oregon, USA) diluted from a stock solution of 5 mM Fura-2AM in DMSO with 2.0% Pluoronic F-127. Cells were incubated at room temperature in the dark for 20 min before being transferred into fresh Hanks solution and further maintained in the dark at RT until use. Cells were transferred to the stage of an Olympus IX71 inverted fluorescence microscope and maintained at 32–34 °C. The imaging system comprised an excitation monochromator (Optoscan, Cairn Research), U-Plan-Apo ×100 1.35 NA objective and an Ixon EMCCD camera (Andor). Fura-2 was illuminated sequentially with 355 ± 5 nm and 380 ± 5 nm light and wavelength switching synchronised with image capture using WinFluor software (Dr John Dempster, Strathclyde University). The EMCCD camera was operated in frame transfer mode at full gain and cooled to −70 °C. Full frame (512 by 512 pixels) images were acquired at 30 frames/s. Ionomycin was applied by droplet application.

Row | Compound | Cell viability following drug treatments [1] | LY spread after scratch wounding [2] | LY spread in the absence of ionomycin stimulation [2] | LY spread after ionomycin pre-treatment in the presence of peptide ([2]; ionomycin 2 µM) | further results
1 | CCCCCCCCCCCCCC(=O)O[C@@H]1[C@@H](C)[C@@]2(O)[C@@H](C=C(CO)C[C@]3(O)C(=O)C(C)=C[C@@H]23)[C@@H]2C(C)(C)[C@]12OC(C)=O [PMA, 12-phorbol 13-myristate acetate] | No evidence for decreased cell viability | significantly reduced LY spread |  |  | 
2 | N-[myr]-RRKEQKTGHAVRAIGRE-amide [control peptide] |  |  | no significant difference in LY spread | significantly reduced LY spread | 
3 | CC1(C)[C@@H](O)CC[C@]2(C)[C@H]3C(=O)C=C4[C@@H]5C[C@@](C)(C(=O)O)CC[C@]5(C)CC[C@@]4(C)[C@]3(C)CC[C@@H]12 [18ßGRR, 18-β-glycyrrhetinic acid] | No evidence for decreased cell viability | significantly reduced LY spread |  |  | 
4 | N-[myr]-RRKWQKTGHAVRAIGRL-amide [mTrp] |  |  | no significant difference in LY spread | reduced the inhibition of LY spread; also recorded: prevented the Ca^2+-induced block | Dissociation from apo-DA-CaM, fast phase [3]: 130 s⁻¹; Dissociation from apo-DA-CaM, slow phase [3]: 0.9 s⁻¹; Hill Coefficient n TA-CaM [4]: 1.3 ± 0.1
5 | EINKLLSEQDGSLKDILRRS [Cx32 CT peptide] |  |  |  |  | CaM binding signal [5]: unable to detect any signals indicating CaM binding
6 | C[C@H](CCC(=O)O)C[C@H](C)C[C@H](C)C(=O)/C=C(\O)[C@H](C)C[C@H](C)C/C=C/[C@@H](C)[C@@H](O)[C@@H](C)[C@@H](O)C[C@@H]1CC[C@@](C)([C@H]2CC[C@@](C)([C@@H](C)O)O2)O1 [ionomycin] |  |  |  |  | Change in [Ca^2+]i (fura-2 ratio) [6]: initial fast increase in [Ca^2+]i; Effect on LY spread when external Ca^2+ omitted ([2]; ionomycin 2 µM, 8 min, external Ca2+ omitted): greatly reduced; LY spread after scratch formation ([2]; ionomycin 2 µM, 8 min pre-treatment, external Ca2+ present, 8 min LY spread): significantly reduced the spread of LY; also recorded: completely blocked
